Measured values published in PubChem BioAssay AID330 (DTP/NCI, 2004).
Where “and” joins values, the source holds several entries; their conditions need not be identical. Equal entries are not always repeated. Inconclusive results and toxic doses are left out. Rule for the calls: active = survival T/C of 150% or more; inactive = T/C below 125% in these data.

Test system: P388 leukemia ip, CD2F1 mice, survival T/C
Assay: NCI In Vivo Anticancer Drug Screen. Data for tumor model P388 Leukemia (intraperitoneal) in CD2F1 (CDF1) mice
Conditions: endpoint: median survival time, higher = longer survival
Procedure, shortened: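 Mice carrying the transplanted tumor received test compound or vehicle. Survival was recorded in each group, and the value is the treated-group measurement divided by that of the vehicle-treated control group.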

[1] = dose: 25.0 mg/kg/injection, schedule: Q01DX009 (ip), vehicle: saline with Tween-80
[2] = dose: 50.0 mg/kg/injection, schedule: Q01DX009 (ip), vehicle: saline with Tween-80
[3] = dose: 100.0 mg/kg/injection, schedule: Q01DX009 (ip), vehicle: saline with Tween-80

Measured: T/C

CCCCCCC(/C=C/c1ccc(Cl)c(Cl)c1)=N\Nc1ccc(Cl)c(Cl)c1
inactive: [1] 90 % of control | [2] 88 % of control and 93 % of control | [3] 94 % of control | dose: 200.0 mg/kg/injection, schedule: Q01DX009 (ip), vehicle: saline with Tween-80 87 % of control

Cc1c(-c2ccccc2)ccnc1/C=N/NC(=S)NCCc1ccccn1
inactive: dose: 6.25 mg/kg/injection, schedule: Q01DX009 (ip), vehicle: saline with Tween-80 113 % of control | dose: 12.5 mg/kg/injection, schedule: Q01DX009 (ip), vehicle: saline with Tween-80 107 % of control and 111 % of control | [1] 115 % of control and 117 % of control | [2] 120 % of control and 122 % of control | [3] 86 % of control

CCNS(=O)(=O)c1ccc2c(c1)nc(SC)n2CC
inactive: dose: 60.0 mg/kg/injection, schedule: Q01DX005 (ip), vehicle: Klucel (hydroxypropylcellulose) (HPC) 104 % of control | dose: 120.0 mg/kg/injection, schedule: Q01DX005 (ip), vehicle: Klucel (hydroxypropylcellulose) (HPC) 105 % of control | dose: 240.0 mg/kg/injection, schedule: Q01DX005 (ip), vehicle: Klucel (hydroxypropylcellulose) (HPC) 104 % of control

CC(=O)c1ccc(Cl)c(N=Cc2cc(Br)ccc2O)c1
inactive: dose: 50.0 mg/kg/injection, schedule: Q01DX005 (ip), vehicle: Klucel (hydroxypropylcellulose) (HPC) 88 % of control | dose: 100.0 mg/kg/injection, schedule: Q01DX005 (ip), vehicle: Klucel (hydroxypropylcellulose) (HPC) 95 % of control | dose: 200.0 mg/kg/injection, schedule: Q01DX005 (ip), vehicle: Klucel (hydroxypropylcellulose) (HPC) 92 % of control

CCOC(=O)/C=C/CC1CCNC1 (stereo not drawn)
inactive: dose: 60.0 mg/kg/injection, schedule: Q01DX005 (ip), vehicle: saline 100 % of control | dose: 120.0 mg/kg/injection, schedule: Q01DX005 (ip), vehicle: saline 100 % of control | dose: 240.0 mg/kg/injection, schedule: Q01DX005 (ip), vehicle: saline 106 % of control
